Laboratory results reported in PubChem BioAssay (NCI).
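A five-concentration, 48-hour dose response in 96-well plates underlies each endpoint, interpolated linearly between surrounding concentrations. TGI marks complete inhibition of growth.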

Tests used:
Assay in all cases: NCI anticancer screen, dose series, 48 h
786-0 renal = test system: 786-0 renal
A498 renal = test system: A498 renal
A549 NSCLC = test system: A549 NSCLC
ACHN renal = test system: ACHN renal
CAKI-1 renal = test system: CAKI-1 renal
CCRF-CEM leukemia = test system: CCRF-CEM leukemia
COLO 205 colon = test system: COLO 205 colon
DLD-1 colon = test system: DLD-1 colon
DMS 114 small cell lung = test system: DMS 114 small cell lung
DMS 273 small cell lung = test system: DMS 273 small cell lung
EKVX NSCLC = test system: EKVX NSCLC
HCT-116 colon = test system: HCT-116 colon
HCT-15 colon = test system: HCT-15 colon
HL-60(TB) leukemia = test system: HL-60(TB) leukemia
HOP-18 NSCLC = test system: HOP-18 NSCLC
HOP-62 NSCLC = test system: HOP-62 NSCLC
HOP-92 NSCLC = test system: HOP-92 NSCLC
HT29 colon = test system: HT29 colon
IGROV1 ovarian = test system: IGROV1 ovarian
K-562 leukemia = test system: K-562 leukemia
KM12 colon = test system: KM12 colon
KM20L2 colon = test system: KM20L2 colon
LOX IMVI melanoma = test system: LOX IMVI melanoma
LXFL 529 NSCLC = test system: LXFL 529 NSCLC
M14 melanoma = test system: M14 melanoma
MALME-3M melanoma = test system: MALME-3M melanoma
MOLT-4 leukemia = test system: MOLT-4 leukemia
NCI-H226 lung = test system: NCI-H226 lung
NCI-H23 lung = test system: NCI-H23 lung
NCI-H460 lung = test system: NCI-H460 lung
NCI-H522 lung = test system: NCI-H522 lung
OVCAR-3 ovarian = test system: OVCAR-3 ovarian
OVCAR-4 ovarian = test system: OVCAR-4 ovarian
OVCAR-5 ovarian = test system: OVCAR-5 ovarian
OVCAR-8 ovarian = test system: OVCAR-8 ovarian
RPMI-8226 leukemia = test system: RPMI-8226 leukemia
RXF 393 renal = test system: RXF 393 renal
RXF-631 renal = test system: RXF-631 renal
SF-268 CNS = test system: SF-268 CNS
SF-295 CNS = test system: SF-295 CNS
SF-539 CNS = test system: SF-539 CNS
SK-MEL-2 melanoma = test system: SK-MEL-2 melanoma
SK-MEL-28 melanoma = test system: SK-MEL-28 melanoma
SK-MEL-5 melanoma = test system: SK-MEL-5 melanoma
SK-OV-3 ovarian = test system: SK-OV-3 ovarian
SN12C renal = test system: SN12C renal
SNB-75 CNS = test system: SNB-75 CNS
SNB-78 CNS = test system: SNB-78 CNS
SR leukemia = test system: SR leukemia
SW-620 colon = test system: SW-620 colon
TK-10 renal = test system: TK-10 renal
U251 CNS = test system: U251 CNS
UACC-257 melanoma = test system: UACC-257 melanoma
UACC-62 melanoma = test system: UACC-62 melanoma
UO-31 renal = test system: UO-31 renal
XF 498 CNS = test system: XF 498 CNS
HCC-2998 colon = test system: HCC-2998 colon
M19-MEL melanoma = test system: M19-MEL melanoma
SNB-19 CNS = test system: SNB-19 CNS

O=C(NCCCCCCNC(=O)c1cccc2ccccc12)c1cccc2ccccc12
TGI (786-0 renal): 80.7 µM | TGI (A498 renal): 65.6 µM | TGI (A549 NSCLC): > 100 µM | TGI (ACHN renal): > 100 µM | TGI (CAKI-1 renal): 66.3 µM | TGI (CCRF-CEM leukemia): > 100 µM | TGI (COLO 205 colon): 3.4 µM | TGI (DLD-1 colon): > 100 µM | TGI (DMS 114 small cell lung): > 100 µM | TGI (DMS 273 small cell lung): 3.46 µM | TGI (EKVX NSCLC): > 100 µM | TGI (HCT-116 colon): 53.9 µM | TGI (HCT-15 colon): > 100 µM | TGI (HL-60(TB) leukemia): > 100 µM | TGI (HOP-18 NSCLC): 76.8 µM | TGI (HOP-62 NSCLC): 48.3 µM | TGI (HOP-92 NSCLC): 25.8 µM | TGI (HT29 colon): > 100 µM | TGI (IGROV1 ovarian): > 100 µM | TGI (K-562 leukemia): > 100 µM | TGI (KM12 colon): > 100 µM | TGI (KM20L2 colon): > 100 µM | TGI (LOX IMVI melanoma): 44.3 µM | TGI (LXFL 529 NSCLC): > 100 µM | TGI (M14 melanoma): > 100 µM | TGI (MALME-3M melanoma): > 100 µM | TGI (MOLT-4 leukemia): > 100 µM | TGI (NCI-H226 lung): 53 µM | TGI (NCI-H23 lung): > 100 µM | TGI (NCI-H460 lung): > 100 µM | TGI (NCI-H522 lung): > 100 µM | TGI (OVCAR-3 ovarian): 71 µM | TGI (OVCAR-4 ovarian): 58.6 µM | TGI (OVCAR-5 ovarian): > 100 µM | TGI (OVCAR-8 ovarian): > 100 µM | TGI (RPMI-8226 leukemia): > 100 µM | TGI (RXF 393 renal): 23.8 µM | TGI (RXF-631 renal): > 100 µM | TGI (SF-268 CNS): 81.9 µM | TGI (SF-295 CNS): 3.4 µM | TGI (SF-539 CNS): 35.4 µM | TGI (SK-MEL-2 melanoma): 34.5 µM | TGI (SK-MEL-28 melanoma): > 100 µM | TGI (SK-MEL-5 melanoma): > 100 µM | TGI (SK-OV-3 ovarian): 56.9 µM | TGI (SN12C renal): > 100 µM | TGI (SNB-75 CNS): 9.55 µM | TGI (SNB-78 CNS): 48.9 µM | TGI (SR leukemia): > 100 µM | TGI (SW-620 colon): > 100 µM | TGI (TK-10 renal): 36.9 µM | TGI (U251 CNS): 53.8 µM | TGI (UACC-257 melanoma): > 100 µM | TGI (UACC-62 melanoma): > 100 µM | TGI (UO-31 renal): 66.3 µM | TGI (XF 498 CNS): 9.97 µM

O=P(O)(OCC(O)O)OCC(O)O
TGI (786-0 renal): > 100 µM | TGI (A498 renal): > 100 µM | TGI (A549 NSCLC): > 100 µM | TGI (ACHN renal): > 100 µM | TGI (CCRF-CEM leukemia): > 100 µM | TGI (COLO 205 colon): > 100 µM | TGI (DLD-1 colon): > 100 µM | TGI (DMS 114 small cell lung): > 100 µM | TGI (DMS 273 small cell lung): > 100 µM | TGI (EKVX NSCLC): > 100 µM | TGI (HCC-2998 colon): > 100 µM | TGI (HCT-116 colon): > 100 µM | TGI (HL-60(TB) leukemia): > 100 µM | TGI (HOP-18 NSCLC): > 100 µM | TGI (HOP-62 NSCLC): > 100 µM | TGI (HOP-92 NSCLC): > 100 µM | TGI (HT29 colon): > 100 µM | TGI (IGROV1 ovarian): > 100 µM | TGI (K-562 leukemia): > 100 µM | TGI (KM12 colon): > 100 µM | TGI (KM20L2 colon): > 100 µM | TGI (LOX IMVI melanoma): > 100 µM | TGI (LXFL 529 NSCLC): > 100 µM | TGI (M19-MEL melanoma): > 100 µM | TGI (MALME-3M melanoma): > 100 µM | TGI (MOLT-4 leukemia): > 100 µM | TGI (NCI-H23 lung): > 100 µM | TGI (NCI-H460 lung): > 100 µM | TGI (NCI-H522 lung): > 100 µM | TGI (OVCAR-3 ovarian): > 100 µM | TGI (OVCAR-5 ovarian): > 100 µM | TGI (OVCAR-8 ovarian): > 100 µM | TGI (RPMI-8226 leukemia): > 100 µM | TGI (RXF 393 renal): > 100 µM | TGI (RXF-631 renal): > 100 µM | TGI (SF-268 CNS): > 100 µM | TGI (SF-295 CNS): > 100 µM | TGI (SF-539 CNS): > 100 µM | TGI (SK-MEL-2 melanoma): > 100 µM | TGI (SK-MEL-28 melanoma): > 100 µM | TGI (SK-MEL-5 melanoma): > 100 µM | TGI (SK-OV-3 ovarian): > 100 µM | TGI (SNB-19 CNS): > 100 µM | TGI (SNB-75 CNS): > 100 µM | TGI (SNB-78 CNS): > 100 µM | TGI (SW-620 colon): > 100 µM | TGI (TK-10 renal): > 100 µM | TGI (U251 CNS): > 100 µM | TGI (UACC-257 melanoma): > 100 µM | TGI (UO-31 renal): > 100 µM | TGI (XF 498 CNS): > 100 µM
